Source: ChEMBL document CHEMBL6078714, “Discovery of N-Trifluoromethylated Noscapines as Novel and Potent Agents for the Treatment of Glioblastoma” (J Med Chem, 2025)
Calls of active or inactive are those of the source. The rule behind the calls is not given here.

Assays:
[1] = Ratio of drug concentration in Sprague-Dawley rat brain to plasma at 5 mg/kg, ip measured after 0.5 hrs; assay type: ADME, organism-based; details: read-out: BPR
[2] = Observed volume of distribution in Sprague-Dawley rat at 5 mg/kg, ip; assay type: ADME, organism-based; details: in vivo
[3] = Toxicity in male BALB/c nude mouse xenografted with human U-118-MG cells assessed as metastasis in liver at 2.5 to 10 mg/kg, ip administered daily for 4 weeks by H and E staining based analysis; assay type: organism-based; details: in vivo, 672 h, dose 2.5-10 mg/kg
[4] = Permeability of compound incubated for 12 hrs by PAMPA; assay type: ADME; details: read-out: permeability
[5] = test system: U-118-MG; test: Antitumor activity against human U-118-MG cells xenografted in male BALB/c nude mouse assessed as tumor growth inhibition at 10 mg/kg, ip administered daily for 4 weeks relative to control; assay type: functional; details: 672 h, read-out: TGI
[6] = test system: U-118-MG; test: Antitumor activity against human U-118-MG cells xenografted in male BALB/c nude mouse assessed as suppression of tumor growth at 2.5 to 10 mg/kg, ip administered daily for 4 weeks; assay type: functional, organism-based; details: dose 2.5-10 mg/kg
[7] = test system: U-118-MG; test: Cell cycle arrest in human U-118-MG cells assessed as accumulation of cells at G1 phase at 3 uM incubated for 24 hrs by flow cytometric analysis (reference value: 56.2 %); assay type: functional
[8] = test system: U-118-MG; test: Antiproliferative activity against human U-118-MG cells assessed as inhibition of cell proliferation incubated for 72 hrs by CCK8 assay; assay type: functional, cell-based
[9] = test system: U-118-MG; test: Cell cycle arrest in human U-118-MG cells assessed as accumulation of cells at G1 phase at 10 uM incubated for 24 hrs by flow cytometric analysis (reference value: 56.2 %); assay type: functional
[10] = Ratio of drug concentration in Sprague-Dawley rat brain to plasma at 5 mg/kg, ip measured after 4 hrs; assay type: ADME, organism-based; details: read-out: BPR
[11] = Toxicity in male BALB/c nude mouse xenografted with human U-118-MG cells assessed as effect on serum urea level at 2.5 to 10 mg/kg, ip administered daily for 4 weeks; assay type: organism-based; details: in vivo, 672 h, dose 2.5-10 mg/kg
[12] = Half-life in Sprague-Dawley rat at 5 mg/kg, ip; assay type: ADME, organism-based; details: in vivo
[13] = test system: U-118-MG; test: Inhibition of cell migration in human U-118-MG cells at 0.1 to 10 uM incubated for 24 hrs by microscopy based wound healing assay; assay type: functional; details: dose 0.1-10 µM
[14] = Drug distribution in Sprague-Dawley rat brain at 5 mg/kg, ip measured after 0.5 hrs; assay type: ADME, organism-based; details: read-out: Ct
[15] = Toxicity in male BALB/c nude mouse xenografted with human U-118-MG cells assessed as body weight loss at 2.5 to 10 mg/kg, ip administered daily for 4 weeks; assay type: organism-based; details: in vivo, 672 h, dose 2.5-10 mg/kg
[16] = Toxicity in male BALB/c nude mouse xenografted with human U-118-MG cells assessed as metastasis in heart at 2.5 to 10 mg/kg, ip administered daily for 4 weeks by H and E staining based analysis; assay type: organism-based; details: in vivo, 672 h, dose 2.5-10 mg/kg
[17] = Toxicity in male BALB/c nude mouse xenografted with human U-118-MG cells assessed as effect on serum ALT level at 2.5 to 10 mg/kg, ip administered daily for 4 weeks; assay type: organism-based; details: in vivo, 672 h, dose 2.5-10 mg/kg
[18] = test system: U-118-MG; test: Induction of apoptosis in human U-118-MG cells assessed as apoptotic rate at 20 uM incubated for 24 hrs by Annexin V-FITC/PI staining based flow cytometric analysis relative to control; assay type: functional
[19] = test system: U-118-MG; test: Inhibition of cell migration in human U-118-MG cells assessed as decrease in number of migrating cells at 0.1 uM incubated for 24 hrs by transwell assay; assay type: functional, cell-based

For `COc1ccc2c(c1OC)C(=O)O[C@@H]2[C@H]1c2c(c(Br)c3c(c2OC)OCO3)CCN1C(F)(F)F`, the Kp at 0.5 h [1] was 0.349, the Vd [2] was 65.2 L/kg and the Activity [3] was “Non-toxic”. The Papp at 12 h [4] was 12.1 ×10⁻⁶ cm/s, the inhibition in vivo at 10 mg/kg [5] was 38.5% and the Activity [6] was “Active”. The Activity [7] was 55.7%, the IC50 [8] was 1550 nM and the Activity [9] was 56.6%. The Kp at 4 h [10] was 0.517, the Activity [11] was “Non-toxic” and the half-life [12] was 5.64 h. The inhibition [13] was “Active”, the concentration at 0.5 h [14] was 35.4 ng/g and the Activity [15] was “Non-toxic”. The Activity [16] was “Non-toxic”, the Activity [17] was “Non-toxic” and the Activity [18] was 23.7%. The inhibition [19] was “Active”.
